The record followed here is PubChem BioAssay (NCI).

What all share (assay): NCI tumour cell line growth inhibition, 48 h
In test [1] the test system is NCI-H23 lung.
Test [2] deals with M14 melanoma.
In test [3] the test system is SNB-75 CNS.
For test [4], the system named is SK-MEL-28 melanoma.
The subject of test [5] is A549 NSCLC.
Test [6] deals with CCRF-CEM leukemia.
For test [7], the system named is TK-10 renal.
Test [8] deals with SK-MEL-5 melanoma.
The subject of test [9] is SK-MEL-2 melanoma.
For test [10], the system named is MDA-MB-231 breast.

Several values for one entry are separate records, joined by “and”; a condition that tells them apart may be missing. Identical values can stand only once.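 These data come from cells grown in 96-well plates and exposed to compound for 48 hours at five concentrations. GI50 marks 50% less growth. Definition used: TGI = concentration required for complete inhibition of growth.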

Take `COc1ccc(/C=C2\CCCC(C(NO)c3ccc(OC)cc3)C2=NO)cc1` (stereo not drawn): the TGI in test [1] was above 100 µM; in test [2], above 100 µM; in test [3], 79.6 µM; in [4], 95.3 µM; in test [5], above 100 µM; in test [6] it was above 100 µM. In addition, the figures for the TGI in [7], in test [8] and in test [9] were above 100 µM, 47.6 µM and above 100 µM, respectively.
Turning to `CCCCN(CCCC)c1c([N+](=O)[O-])c(=O)nc2ccccn12`, the TGI was above 100 µM in [1]; 83.3 µM in test [2]; above 100 µM in test [3]; 54 µM in [4]; above 100 µM in [5]; above 100 µM in test [6]. Further, the TGI in test [7] was 85 µM; in test [8] it was above 100 µM; in [9] it was above 100 µM.
Take `CC1=C(C(=O)Nc2cccc(Cl)c2)C(c2ccccc2F)C(C(=O)Nc2cccc(Cl)c2)=C(C)N1`: the TGI is 26.5 µM in [1]; 18 µM in [2]; 54.9 µM in test [3]; 23 µM in test [4]; 40.6 µM in test [5]; 26.2 µM in [6]. Besides, the figures for the TGI in [7], in test [8] and in test [9] were 68.2 µM, 29.5 µM and 27.1 µM, respectively.
Consider `Cc1nc2sccn2c1-c1csc(Nc2cccc(Cl)c2C)n1`, for which the GI50 was 3.62 µM in [10]; 5.04 µM in test [2]; 3.19 µM in test [3]; 5.67 µM in test [4]; 3.23 µM in test [5]; 4.01 µM in test [6]. The GI50 in test [8] is 1.52 µM; in test [9] it was 3.78 µM. Besides, the TGI came to 20.2 µM in test [10]; 28.5 µM in test [2]; 28.3 µM in test [3]; 44.1 µM in test [4]; 49.2 µM in test [5]; 82.1 µM in test [6]. In addition, the TGI in test [8] was 3.92 µM; in test [9] it was 14 µM.
With `NCCCCNc1ccc2c(=O)[nH][nH]c(=O)c2c1`, the TGI in test [1], in test [2], in test [3], in test [4], in test [5] and in test [6] was above 100 µM each time. For the same molecule, the TGI in test [7], in test [8] and in test [9] was above 100 µM throughout.
For `CC[C@]1(O)C(=O)OCc2c1cc1n(c2=O)Cc2cc3c(N)cccc3nc2-1`, the TGI in test [1] was above 100 µM; in test [2], above 100 µM; in test [3], 99.1 µM; in [4], above 100 µM; in test [5] it was above 100 µM; in test [6] it was above 100 µM. Moreover, the TGI in test [7], in test [8] and in test [9] was above 100 µM in each case.
On to `Cc1c(C(=O)NCCN2CCOCC2)cn2ncnc(Oc3ccc(NC(=O)Nc4ccc(Cl)c(C(F)(F)F)c4)cc3)c12`, for which the GI50 in [10] is 1.31 µM; in test [2], 1.08 µM; in [4], 1.06 µM; in [8], 1.65 µM. Besides, the TGI in [10] was 2.91 µM; in test [2], 2.55 µM; in test [4], 2.39 µM; in [8], 3.01 µM.
Consider `CN1CC[C@]2(C)c3ccc(O)cc3CC3CCCC1C32C` (stereo partly drawn), for which the TGI in test [1], in test [2], in test [3], in test [4], in test [5] and in test [6] was above 100 µM throughout. The TGI in [7], in test [8] and in [9] was above 100 µM in each case.
As to `COC(=O)c1nc(Cl)nc(Cl)c1Cl`, the TGI was 42.9 µM in test [10]; above 100 µM in test [1]; 38.3 µM in [2]; above 100 µM in test [3]; 56.9 µM in test [4]; above 100 µM in [5]. For the same molecule, the results for the TGI in test [6], in test [7] and in test [8] were 27.7 µM, 47.8 µM and 35.1 µM, respectively.
For `COc1ccc(C2=NN(C=O)C(c3cccc(Nc4ccnc5cc(Cl)ccc45)c3)C2)cc1` (stereo not drawn), the GI50 in test [10] was 4 µM; in test [1], 1.87 µM; in [2], 2.34 µM; in test [3], 2.56 µM; in test [4] it was 8.12 µM; in test [5], 4.63 µM. Further, the GI50 in test [6] is 2.14 µM; in [7], 4.24 µM; in test [8], 0.922 µM. For the same molecule, the TGI was 97 µM in test [10]; above 100 µM in test [1]; 15.9 µM in [2]; 38 µM in test [3]; 25.3 µM in test [4]; above 100 µM in [5]. Further, the TGI in test [6] was 13.1 µM; in [7], 20.2 µM; in test [8], 3.71 µM.
As for `N.N.N.N.O=C([O-])C(Cl)Cl.O=C([O-])C(Cl)Cl.[Co+3].[O-][Cl+3]([O-])([O-])[O-]`, the GI50 in test [1], in test [2], in test [3], in test [4], in test [5] and in test [6] was above 100 µM throughout. The GI50 in test [7], in [8] and in [9] was above 100 µM throughout. The TGI in test [1], in test [2], in [3], in test [4], in test [5] and in [6] was above 100 µM each time. For the same molecule, the TGI in test [7], in test [8] and in [9] was above 100 µM in each case.
For the molecule `N#CCCN(CCC#N)c1ccc(C(Sc2ccccc2)C(NC(=O)c2cc([N+](=O)[O-])ccc2Cl)C(=O)Sc2ccccc2)cc1` (stereo not drawn), the GI50 in test [1] was 2.84 µM; in [2], 1.61 µM; in test [3] it was 1.85 µM; in test [4], 3.24 µM; in test [5] it was 0.954 µM; in test [7], 3.97 µM. The TGI in test [1] is 13.5 µM; in test [2] it was 4.07 µM; in test [3], 7.19 µM; in test [4], 7.06 µM and 14.2 µM; in [5], 6.47 µM and 13.2 µM; in test [6], 0.765 µM and 0.479 µM. In addition, the TGI in [7] was found to be 9.62 µM; in test [8], 15.6 µM; in [9] it was 4.64 µM.
